Laboratory results taken from patent publication US9169254B2, “Spiroimidazolone derivative” (Chugai Seiyaku Kabushiki Kaisha, priority 2009, dated 2015).

Target: T1, human PTH1 receptor (Homo sapiens, UniProt Q03431)
T1 sequence (Q03431 27-593): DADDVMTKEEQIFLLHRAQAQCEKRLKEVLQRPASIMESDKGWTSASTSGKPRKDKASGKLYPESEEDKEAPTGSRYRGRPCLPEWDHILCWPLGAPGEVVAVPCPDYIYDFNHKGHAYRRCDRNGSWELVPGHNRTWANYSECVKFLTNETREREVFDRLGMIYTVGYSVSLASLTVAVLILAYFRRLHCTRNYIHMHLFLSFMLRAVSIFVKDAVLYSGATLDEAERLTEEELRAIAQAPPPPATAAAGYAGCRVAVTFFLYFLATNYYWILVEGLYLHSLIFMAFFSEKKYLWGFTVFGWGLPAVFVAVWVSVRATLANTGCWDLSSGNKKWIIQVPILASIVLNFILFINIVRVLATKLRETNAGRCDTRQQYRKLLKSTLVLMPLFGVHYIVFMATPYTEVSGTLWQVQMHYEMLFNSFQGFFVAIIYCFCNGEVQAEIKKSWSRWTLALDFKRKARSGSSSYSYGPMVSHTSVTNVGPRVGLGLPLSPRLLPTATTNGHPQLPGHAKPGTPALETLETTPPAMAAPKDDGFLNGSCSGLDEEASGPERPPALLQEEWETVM
Assay: In vitro cAMP signal activity in HKRK-B7 cells (LLC-PK1 cells overexpressing the human PTH1 receptor)
Type: cell-based
Conditions: HKRK-B7 cells; compound at 1×10^−3 M; cAMP produced as percentage of that produced by hPTH(1-34) at 100 nM

Row | Compound | cAMP production activity (%)
1 | Cc1cc(C(=O)N2CCC(CO)CC2)cc(C)c1/C=C/S(=O)(=O)N1CCC2(CC1)N=C(c1cccc(OC(F)(F)F)c1)NC2=O [Compound 960, 8-{(E)-2-[4-(4-hydroxymethyl-piperidine-1-carbonyl)-2,6-dimethyl-phenyl]-ethenesulfonyl}-2-(3-trifluoromethoxy-phenyl)-1,3,8-triaza-spiro[4.5]dec-1-en-4-one] | 84
2 | O=C1NC(C2CCCN(S(=O)(=O)Cc3ccccc3)C2)=NC12CCN(S(=O)(=O)c1cccc(Cl)c1)CC2 (stereo not shown) [Compound 42, 8-(3-chloro-benzenesulfonyl)-2-(1-phenylmethanesulfonyl-piperidin-3-yl)-1,3,8-triaza-spiro[4.5]dec-1-en-4-one] | 27
3 | Cn1ccc2cccc(CCS(=O)(=O)N3CCC4(CC3)N=C(c3cccc(OC(F)(F)F)c3)NC4=O)c21 [Compound 308, 8-[2-(1-methyl-1H-indol-7-yl)-ethanesulfonyl]-2-(3-trifluoromethoxy-phenyl)-1,3,8-triaza-spiro[4.5]dec-1-en-4-one] | 72
4 | O=C1NC(c2ccc(Cl)cc2Cl)=NC12CCN(S(=O)(=O)/C=C/c1cccc3c1ccn3C[C@H](O)CO)CC2 [Compound 249, 2-(2,4-dichloro-phenyl)-8-{(E)-2-[1-((S)-2,3-dihydroxy-propyl)-1H-indol-4-yl]-ethenesulfonyl}-1,3,8-triaza-spiro[4.5]dec-1-en-4-one] | 71
5 | Cc1cc(N2OCCC2=O)ccc1/C=C/S(=O)(=O)N1CCC2(CC1)N=C(C1CCC(C)CC1)NC2=O (stereo not shown) [Compound 580, 2-(4-methyl-cyclohexyl)-8-{(E)-2-[2-methyl-4-(3-oxo-isoxazolidin-2-yl)-phenyl]-ethenesulfonyl}-1,3,8-triaza-spiro[4.5]dec-1-en-4-one] | 25
6 | O=C1NC(C2CCCCC2)=NC12CCN(S(=O)(=O)CCc1cccc3c1ccn3C[C@H](O)CO)CC2 [Compound 309, 2-cyclohexyl-8-{2-[1-((S)-2,3-dihydroxy-propyl)-1H-indol-4-yl]-ethanesulfonyl}-1,3,8-triaza-spiro[4.5]dec-1-en-4-one] | 72
7 | Cc1cc(C(=O)N2CCC(C)(O)CC2)cc(C)c1CCS(=O)(=O)N1CCC2(CC1)N=C(c1ccc3c(c1)OC(F)(F)O3)NC2=O [Compound 1336, 2-(2,2-difluoro-benzo[1,3]dioxol-5-yl)-8-{2-[4-(4-hydroxy-4-methyl-piperidine-1-carbonyl)-2,6-dimethyl-phenyl]-ethanesulfonyl}-1,3,8-triaza-spiro[4.5]dec-1-en-4-one] | 133
8 | Cc1cc(C(=O)N(C)CCCN(C)C)cc(C)c1/C=C/S(=O)(=O)N1CCC2(CC1)N=C(c1cccc(C(F)(F)F)c1)NC2=O [Compound 391, N-(3-dimethylamino-propyl)-3,5,N-trimethyl-4-{(E)-2-[4-oxo-2-(3-trifluoromethyl-phenyl)-1,3,8-triaza-spiro[4.5]dec-1-ene-8-sulfonyl]-vinyl}-benzamide] | 26
9 | Cc1cc(C(=O)N2C[C@@H](O)[C@H](N(C)C)C2)cc(C)c1/C=C/S(=O)(=O)N1CCC2(CC1)N=C(c1cccc(C(F)(F)F)c1)NC2=O [Compound 387, 8-{(E)-2-[4-((3R,4R)-3-dimethylamino-4-hydroxy-pyrrolidine-1-carbonyl)-2,6-dimethyl-phenyl]-ethenesulfonyl}-2-(3-trifluoromethyl-phenyl)-1,3,8-triaza-spiro[4.5]dec-1-en-4-one] | 97
10 | [2H]C([2H])([2H])C([2H])([2H])C([2H])([2H])C([2H])([2H])Oc1cc(C2=NC3(CCN(S(=O)(=O)/C=C/c4c(C)cc(C(=O)N5CCC(C)(O)CC5)cc4C)CC3)C(=O)N2)cc(C(F)(F)F)c1 [Compound 1233, 2-(3-[1,1,2,2,3,3,4,4,4-^2H9]butoxy-5-trifluoromethyl-phenyl)-8-{(E)-2-[4-(4-hydroxy-4-methyl-piperidine-1-carbonyl)-2,6-dimethyl-phenyl]-ethenesulfonyl}-1,3,8-triaza-spiro[4.5]dec-1-en-4-one] | 78
11 | Cc1cc(NC[C@H](O)CO)ccc1CCS(=O)(=O)N1CCC2(CC1)N=C(c1ccc(C(F)(F)F)cc1)NC2=O [Compound 154, 8-{2-[4-((S)-2,3-Dihydroxy-propylamino)-2-methyl-phenyl]-ethanesulfonyl}-2-(4-trifluoromethyl-phenyl)-1,3,8-triaza-spiro[4.5]dec-1-en-4-one] | 82
12 | COCCN(C(N)=O)c1cc(C)c(CCS(=O)(=O)N2CCC3(CC2)N=C(C2CCC(CCC(F)(F)F)CC2)NC3=O)c(C)c1 (stereo not shown) [Compound 827, 1-[3,5-dimethyl-4-(2-{4-oxo-2-[4-(3,3,3-trifluoro-propyl)-cyclohexyl]-1,3,8-triaza-spiro[4.5]dec-1-ene-8-sulfonyl}-ethyl)-phenyl]-1-(2-methoxy-ethyl)-urea] | 78
13 | Cc1cc(N(C)C(N)=O)cc(C)c1CCS(=O)(=O)N1CCC2(CC1)N=C(C1CCCC(C)C1)NC2=O (stereo not shown) [Compound 1297, 1-(3,5-Dimethyl-4-{2-[2-(3-methyl-cyclohexyl)-4-oxo-1,3,8-triaza-spiro[4.5]dec-1-ene-8-sulfonyl]-ethyl}-phenyl)-1-methyl-urea] | 98
14 | Cc1cc(C2=NC3(CCN(S(=O)(=O)/C=C/c4c(C)cc(C(=O)N5CCC(C)(O)CC5)cc4C)CC3)C(=O)N2)ccc1OC(F)(F)F [Compound 1214, 8-{(E)-2-[4-(4-hydroxy-4-methyl-piperidine-1-carbonyl)-2,6-dimethyl-phenyl]-ethenesulfonyl}-2-(3-methyl-4-trifluoromethoxy-phenyl)-1,3,8-triaza-spiro[4.5]dec-1-en-4-one] | 79
15 | Cc1cc(N2C(=O)CC[C@@H]2COCCO)cc(C)c1/C=C/S(=O)(=O)N1CCC2(CC1)N=C(C1CCCCC1)NC2=O [Compound 710, 2-cyclohexyl-8-((E)-2-{4-[(R)-2-(2-hydroxy-ethoxymethyl)-5-oxo-pyrrolidin-1-yl]-2,6-dimethyl-phenyl}-ethenesulfonyl)-1,3,8-triaza-spiro[4.5]dec-1-en-4-one] | 76
16 | Cc1cc2ccc1CCS(=O)(=O)N1CCC3(CC1)N=C(NC3=O)c1cc(cc(C(F)(F)F)c1)OCC/C=C\CCCCCCN(C)C2=O [Compound 1417] | 49
17 | O=C1NC(c2ccc(C(F)(F)F)cc2)=NC12CCN(S(=O)(=O)c1cccc(Cl)c1)CC2 [Compound 12, 8-(3-chloro-benzenesulfonyl)-2-(4-trifluoromethyl-phenyl)-1,3,8-triaza-spiro[4.5]dec-1-en-4-one] | 12
18 | Cc1ccc(C(=O)N(C)C)cc1-c1ccc(S(=O)(=O)N2CCC3(CC2)N=C(c2ccc(F)c(C(F)(F)F)c2)NC3=O)s1 [Compound 334, 3-{5-[2-(4-fluoro-3-trifluoromethyl-phenyl)-4-oxo-1,3,8-triaza-spiro[4.5]dec-1-ene-8-sulfonyl]-thiophen-2-yl}-4,N,N-trimethyl-benzamide] | 34
19 | Cc1cc(C(=O)N(C)C)ccc1CCS(=O)(=O)N1CCC2(CC1)N=C(C1CCOCC1)NC2=O [Compound 123, 3,N,N-trimethyl-4-{2-[4-oxo-2-(tetrahydro-pyran-4-yl)-1,3,8-triaza-spiro[4.5]dec-1-ene-8-sulfonyl]-ethyl}-benzamide] | 23
